# Measured values from patent publication US9073874B2, “Cyclic N,N′-diarylthioureas and N,N′-diarylureas-androgen receptor antagonists, anticancer agent, method for preparation and use thereof” (priority 2010, dated 2015).
# Tests used:
# V1 a (h) = V1 a (h) (Homo sapiens, UniProt P37288); assay: competitive radioligand binding assay, V1 a (h) (agonist radioligand)
# B1 (h) = B1 (h) (Homo sapiens, UniProt P46663); assay: competitive radioligand binding assay, B1 (h) (agonist radioligand)
# AT2 (h) = AT2 (h) (Homo sapiens, UniProt P50052); assay: competitive radioligand binding assay, AT2 (h) (agonist radioligand)
# V2 (h) = V2 (h) (Homo sapiens, UniProt P30518); assay: competitive radioligand binding assay, V2 (h) (agonist radioligand)
# CB1 (h) = CB1 (h) (Homo sapiens, UniProt P21554); assay: competitive radioligand binding assay, CB1 (h) (agonist radioligand)
# [1] = Maximum tolerated dose, peroral once a day for 5 days in CD1 male mice; assay type: in vivo
# Method: The maximum tolerated doses (MTD) of novel antagonists (R)-1 and their analog Ia were determined in experiments on CD1 male mice at peroral administration once a day for 5 days in doses of 10, 30, and 100 mg/kg. The compound was dissolved in sterile water with addition of Tween 80. Sterile water with Tween 80 was given to control animals (Placebo group). Animals' body weight and mortality rate were estimated. Statistical comparison of groups was carried out according to a non-parametric ANOVA test using Statistica software.
# β1 (h) = β1 (h) (Homo sapiens, UniProt P08588); assay: competitive radioligand binding assay, β1 (h) (agonist radioligand)
# LnCAP-Z2 tumors = assay: Prostate cancer xenograft model, SCID male mice bearing LnCAP-Z2 tumors; assay type: in vivo; conditions: for antitumor efficacy (in words): oral
# Method: SCID male mice bearing LnCAP-Z2 tumors (mean volume˜160-190 mm^3) were treated daily by oral gavage with vehicle or drugs for 21 days. Individual tumor volume change by the end of the study. Percentage of change in individual tumor volumes as compared to the start of treatment.
# FIG. 6. […] SCID male mice bearing LnCAP-Z2 tumors (mean volume˜160-190 mm^3) treated daily by oral gavage with vehicle or drugs for 21 days. Individual tumor volume change by the end of the study. Percentage of change in individual tumor volumes compared to the start of treatment.
# FIG. 7. […] SCID male mice bearing LnCAP-Z2 tumors (mean volume˜160-190 mm^3) treated daily by oral gavage with vehicle or drugs for 21 days. (A)—Tumor weight by the end of the study. Mean±SEM are presented. […] (B)—PSA expression by the end of the study. Plasma samples were collected 24 hours after the last drug administration. Mean±SEM are presented.
# The antitumor efficacy of (R)-1 was tested in a xenograft model of prostate cancer (FIGS. 6 and 7). Male immunodeficient mice harboring LnCAP-Z2 tumors were treated orally for 21 days with either vehicle or (R)-1 at 20 and 50 mg/kg once daily and at 20 mg/kg twice daily. […] Twenty-four hours after last treatment, blood samples were collected from all animals and used for measuring PSA expression and drug concentration. In addition, the concentration of drugs and Ki67 expression were measured in tumor samples.
# CYP 3A = CYP 3A induction assay; assay type: in vitro ADME
# D1 (h) = D1 (h) (Homo sapiens, UniProt P21728); assay: competitive radioligand binding assay, D1 (h) (antagonist radioligand)
# NK1 (h) = NK1 (h) (Homo sapiens, UniProt P25103); assay: competitive radioligand binding assay, NK1 (h) (agonist radioligand)
# 5-HT transporter (h) = 5-HT transporter (h) (Homo sapiens, UniProt P31645); assay: competitive radioligand binding assay, 5-HT transporter (h) (antagonist radioligand)
# [2] = test system: T1, GABA (non-selective) receptors; assay type: binding
# T1 construct: other: 10 μM; GABA (non-selective) (agonist radioligand); activity towards GABA (non-selective) receptors (in words)
# IP (PGI2) (h) = IP (PGI2) (h) (Homo sapiens, UniProt P43119); assay: competitive radioligand binding assay, IP (PGI2) (h) (agonist radioligand)
# D3 (h) = D3 (h) (Homo sapiens, UniProt P35462); assay: competitive radioligand binding assay, D3 (h) (antagonist radioligand)
# AMPA = assay: competitive radioligand binding assay, AMPA (agonist radioligand); conditions: 10 μM
# [3] = test system: sigma (non-selective) (h); assay: competitive radioligand binding assay, sigma (non-selective) (h) (agonist radioligand); set-up: species or system human; conditions: 10 μM
# NK2 (h) = NK2 (h) (Homo sapiens, UniProt P21452); assay: competitive radioligand binding assay, NK2 (h) (agonist radioligand)
# A2A (h) = A2A (h) (Homo sapiens, UniProt P29274); assay: competitive radioligand binding assay, A2A (h) (agonist radioligand)
# M (non0selective) = assay: competitive radioligand binding assay, M (non0selective) (antagonist radioligand); conditions: 10 μM
# ER (non-selective) (h) = assay: competitive radioligand binding assay, ER (non-selective) (h) (agonist radioligand); set-up: species or system human; conditions: 10 μM
# H1 (h) = H1 (h) (Homo sapiens, UniProt P35367); assay: competitive radioligand binding assay, H1 (h) (antagonist radioligand)
# β2 (h) = β2 (h) (Homo sapiens, UniProt P07550); assay: competitive radioligand binding assay, β2 (h) (agonist radioligand)
# GR (h) = GR (h) (Homo sapiens, UniProt P04150); assay: competitive radioligand binding assay, GR (h) (agonist radioligand)
# KV channel = assay: competitive radioligand binding assay, KV channel (antagonist radioligand); conditions: 10 μM
# SKCa channel = assay: competitive radioligand binding assay, SKCa channel (antagonist radioligand); conditions: 10 μM
# Y (non-selective) = assay: competitive radioligand binding assay, Y (non-selective) (agonist radioligand); conditions: 10 μM
# Na+ channel (site 2) = assay: competitive radioligand binding assay, Na+ channel (site 2) (antagonist radioligand); conditions: 10 μM
# MC4 (h) = MC4 (h) (Homo sapiens, UniProt P32245); assay: competitive radioligand binding assay, MC4 (h) (agonist radioligand)
# CB2 (h) = CB2 (h) (Homo sapiens, UniProt P34972); assay: competitive radioligand binding assay, CB2 (h) (agonist radioligand)
# NOP (ORL1) (h) = NOP (ORL1) (h) (Homo sapiens, UniProt P41146); assay: competitive radioligand binding assay, NOP (ORL1) (h) (agonist radioligand)
# Sequence of NOP (ORL1) (h) (P41146 whole entry): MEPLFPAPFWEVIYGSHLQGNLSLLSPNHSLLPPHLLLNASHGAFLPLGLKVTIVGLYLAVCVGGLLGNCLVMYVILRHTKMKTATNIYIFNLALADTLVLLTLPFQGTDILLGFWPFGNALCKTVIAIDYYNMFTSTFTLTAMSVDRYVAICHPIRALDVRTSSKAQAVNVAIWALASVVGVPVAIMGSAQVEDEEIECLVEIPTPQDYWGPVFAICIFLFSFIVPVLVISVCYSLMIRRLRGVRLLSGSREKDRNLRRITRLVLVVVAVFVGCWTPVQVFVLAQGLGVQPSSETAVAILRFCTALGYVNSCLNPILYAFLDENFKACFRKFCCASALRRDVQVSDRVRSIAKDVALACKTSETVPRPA
# Sequence of β2 (h) (P07550 whole entry): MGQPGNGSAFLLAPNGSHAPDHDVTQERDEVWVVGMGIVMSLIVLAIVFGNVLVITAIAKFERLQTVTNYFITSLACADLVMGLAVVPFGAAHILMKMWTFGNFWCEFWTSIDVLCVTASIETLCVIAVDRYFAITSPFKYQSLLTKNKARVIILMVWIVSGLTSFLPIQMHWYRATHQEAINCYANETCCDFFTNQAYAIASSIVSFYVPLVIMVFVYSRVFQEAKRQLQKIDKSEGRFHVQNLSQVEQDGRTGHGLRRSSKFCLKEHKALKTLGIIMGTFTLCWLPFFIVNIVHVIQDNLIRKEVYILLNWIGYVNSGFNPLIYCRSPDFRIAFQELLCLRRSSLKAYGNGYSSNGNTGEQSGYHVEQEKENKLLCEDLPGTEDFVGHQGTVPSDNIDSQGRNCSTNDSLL
# Sequence of V1 a (h) (P37288 whole entry): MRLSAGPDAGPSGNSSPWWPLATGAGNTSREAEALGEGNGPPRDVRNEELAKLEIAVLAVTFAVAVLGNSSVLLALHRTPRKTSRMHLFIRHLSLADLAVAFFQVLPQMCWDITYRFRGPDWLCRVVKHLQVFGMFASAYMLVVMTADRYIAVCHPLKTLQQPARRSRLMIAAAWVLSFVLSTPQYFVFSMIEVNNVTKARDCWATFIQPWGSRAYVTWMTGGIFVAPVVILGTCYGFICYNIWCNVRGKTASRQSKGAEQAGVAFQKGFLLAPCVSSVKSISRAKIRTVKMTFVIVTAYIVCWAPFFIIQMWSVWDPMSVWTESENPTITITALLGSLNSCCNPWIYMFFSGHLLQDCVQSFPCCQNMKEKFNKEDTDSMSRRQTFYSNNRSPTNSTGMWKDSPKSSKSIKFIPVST
# Sequence of B1 (h) (P46663 whole entry): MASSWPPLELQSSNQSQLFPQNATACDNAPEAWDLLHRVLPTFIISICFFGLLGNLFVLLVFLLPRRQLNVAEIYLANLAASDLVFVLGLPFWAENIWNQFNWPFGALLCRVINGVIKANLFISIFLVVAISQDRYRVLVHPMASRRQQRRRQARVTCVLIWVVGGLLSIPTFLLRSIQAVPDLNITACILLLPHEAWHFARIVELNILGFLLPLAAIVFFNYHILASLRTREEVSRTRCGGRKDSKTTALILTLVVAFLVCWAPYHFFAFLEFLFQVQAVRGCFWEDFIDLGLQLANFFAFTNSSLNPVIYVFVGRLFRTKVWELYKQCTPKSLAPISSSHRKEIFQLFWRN
# Sequence of CB2 (h) (P34972 whole entry): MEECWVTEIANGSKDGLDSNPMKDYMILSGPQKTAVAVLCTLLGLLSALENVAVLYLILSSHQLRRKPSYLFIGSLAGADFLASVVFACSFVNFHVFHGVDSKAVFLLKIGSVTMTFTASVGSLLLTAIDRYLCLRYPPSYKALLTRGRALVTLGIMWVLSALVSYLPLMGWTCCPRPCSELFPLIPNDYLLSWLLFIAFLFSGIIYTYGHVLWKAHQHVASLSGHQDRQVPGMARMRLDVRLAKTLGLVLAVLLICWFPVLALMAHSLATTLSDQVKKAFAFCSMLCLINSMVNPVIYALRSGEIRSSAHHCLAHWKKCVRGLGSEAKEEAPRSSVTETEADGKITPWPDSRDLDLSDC
# Sequence of A2A (h) (P29274 whole entry): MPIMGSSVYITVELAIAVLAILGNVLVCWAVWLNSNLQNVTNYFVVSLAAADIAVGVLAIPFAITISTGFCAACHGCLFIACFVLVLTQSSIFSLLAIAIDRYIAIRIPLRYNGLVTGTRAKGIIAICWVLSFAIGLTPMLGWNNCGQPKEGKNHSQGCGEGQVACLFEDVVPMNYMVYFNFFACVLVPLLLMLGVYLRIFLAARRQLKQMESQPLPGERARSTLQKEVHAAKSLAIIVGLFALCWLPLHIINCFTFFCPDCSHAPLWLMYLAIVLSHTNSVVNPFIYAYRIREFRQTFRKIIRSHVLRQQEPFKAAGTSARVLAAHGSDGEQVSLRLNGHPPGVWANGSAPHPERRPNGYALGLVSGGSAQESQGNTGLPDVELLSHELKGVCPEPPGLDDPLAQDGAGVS
# Sequence of GR (h) (P04150 whole entry): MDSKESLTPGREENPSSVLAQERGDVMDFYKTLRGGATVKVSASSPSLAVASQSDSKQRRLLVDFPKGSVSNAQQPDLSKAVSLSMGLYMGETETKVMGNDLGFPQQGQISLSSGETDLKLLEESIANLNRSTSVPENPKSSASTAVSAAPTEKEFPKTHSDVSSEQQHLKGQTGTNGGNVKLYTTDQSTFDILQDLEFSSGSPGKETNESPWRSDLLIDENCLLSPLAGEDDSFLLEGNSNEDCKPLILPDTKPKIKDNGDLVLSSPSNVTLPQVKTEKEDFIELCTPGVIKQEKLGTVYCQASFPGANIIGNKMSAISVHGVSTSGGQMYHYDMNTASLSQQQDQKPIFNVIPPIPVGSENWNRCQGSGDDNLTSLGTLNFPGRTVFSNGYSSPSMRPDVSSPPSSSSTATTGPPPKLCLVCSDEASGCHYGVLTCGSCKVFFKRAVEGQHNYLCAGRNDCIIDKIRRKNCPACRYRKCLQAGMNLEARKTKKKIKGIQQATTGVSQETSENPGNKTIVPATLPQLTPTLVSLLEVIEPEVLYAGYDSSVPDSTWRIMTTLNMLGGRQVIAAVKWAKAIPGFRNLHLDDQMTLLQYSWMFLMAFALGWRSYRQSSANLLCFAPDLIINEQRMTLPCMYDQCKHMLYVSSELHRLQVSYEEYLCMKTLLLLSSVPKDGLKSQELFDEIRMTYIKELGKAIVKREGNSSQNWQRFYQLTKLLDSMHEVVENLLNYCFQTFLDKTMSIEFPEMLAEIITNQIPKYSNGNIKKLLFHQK
# Sequence of 5-HT transporter (h) (P31645 whole entry): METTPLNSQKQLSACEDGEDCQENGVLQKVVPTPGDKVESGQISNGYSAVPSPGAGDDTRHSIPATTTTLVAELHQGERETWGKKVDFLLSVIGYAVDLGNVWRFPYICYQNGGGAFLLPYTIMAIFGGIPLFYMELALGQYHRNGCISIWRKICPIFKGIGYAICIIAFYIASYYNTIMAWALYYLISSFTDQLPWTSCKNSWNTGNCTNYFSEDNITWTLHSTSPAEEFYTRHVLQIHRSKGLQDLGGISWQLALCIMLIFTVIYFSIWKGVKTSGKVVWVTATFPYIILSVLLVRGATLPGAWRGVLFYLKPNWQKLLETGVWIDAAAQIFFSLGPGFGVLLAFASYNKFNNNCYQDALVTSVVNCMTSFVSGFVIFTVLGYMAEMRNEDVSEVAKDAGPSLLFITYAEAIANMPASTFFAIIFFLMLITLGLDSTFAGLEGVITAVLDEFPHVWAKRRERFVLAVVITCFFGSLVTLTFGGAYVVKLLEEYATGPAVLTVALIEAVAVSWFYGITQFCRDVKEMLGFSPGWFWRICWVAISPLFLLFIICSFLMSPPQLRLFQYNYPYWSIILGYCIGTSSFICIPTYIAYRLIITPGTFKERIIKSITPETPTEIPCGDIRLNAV
# Sequence of NK1 (h) (P25103 whole entry): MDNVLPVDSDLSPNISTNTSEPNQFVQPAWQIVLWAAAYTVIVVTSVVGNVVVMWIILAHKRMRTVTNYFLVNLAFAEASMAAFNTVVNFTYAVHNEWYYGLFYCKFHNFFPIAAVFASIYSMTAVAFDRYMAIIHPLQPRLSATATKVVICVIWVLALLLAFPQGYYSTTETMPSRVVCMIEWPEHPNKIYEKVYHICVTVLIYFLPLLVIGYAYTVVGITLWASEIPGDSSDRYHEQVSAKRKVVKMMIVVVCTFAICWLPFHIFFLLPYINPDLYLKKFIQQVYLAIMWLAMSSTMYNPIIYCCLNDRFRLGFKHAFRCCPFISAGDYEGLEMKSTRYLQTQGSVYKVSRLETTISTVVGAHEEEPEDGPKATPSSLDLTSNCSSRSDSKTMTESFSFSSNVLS
# Sequence of V2 (h) (P30518 whole entry): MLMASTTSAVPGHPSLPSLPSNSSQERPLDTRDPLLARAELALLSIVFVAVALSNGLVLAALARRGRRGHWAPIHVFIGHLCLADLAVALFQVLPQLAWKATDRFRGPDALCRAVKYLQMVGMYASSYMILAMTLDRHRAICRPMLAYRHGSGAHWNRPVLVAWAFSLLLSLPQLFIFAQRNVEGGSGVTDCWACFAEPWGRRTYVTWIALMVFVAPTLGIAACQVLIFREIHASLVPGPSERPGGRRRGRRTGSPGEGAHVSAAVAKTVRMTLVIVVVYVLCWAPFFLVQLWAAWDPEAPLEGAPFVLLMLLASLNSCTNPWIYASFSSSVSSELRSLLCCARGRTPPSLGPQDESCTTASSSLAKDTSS
# Sequence of IP (PGI2) (h) (P43119 whole entry): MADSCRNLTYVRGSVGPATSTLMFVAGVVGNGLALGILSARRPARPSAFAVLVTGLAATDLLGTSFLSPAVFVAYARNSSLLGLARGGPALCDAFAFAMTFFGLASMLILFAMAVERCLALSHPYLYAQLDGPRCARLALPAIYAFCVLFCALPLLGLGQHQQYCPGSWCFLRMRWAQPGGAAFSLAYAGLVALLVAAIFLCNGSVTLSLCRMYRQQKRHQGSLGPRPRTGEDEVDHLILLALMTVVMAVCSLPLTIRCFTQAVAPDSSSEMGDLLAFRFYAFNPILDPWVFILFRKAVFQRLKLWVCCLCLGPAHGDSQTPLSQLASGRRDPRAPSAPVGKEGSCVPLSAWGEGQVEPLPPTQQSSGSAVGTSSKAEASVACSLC
smiles,measurement,setting,value
"CNC(=O)c1ccc(N2C(=S)N(c3ccc(C#N)c(C(F)(F)F)c3)C(=O)[C@]23CCOC3)cc1F [(R)-1, 4-[(R)-3-(4-cyano-3-trifluoromethyl-phenyl)-4-oxo-2-thioxo-7-oxa-1,3-diaza-spiro[4.4]non-1-yl]-2-fluoro-N-methyl-benzamide]",inhibition at 10 µM,V1 a (h),12.3%
same,inhibition at 10 µM,B1 (h),0.5%
same,inhibition at 10 µM,AT2 (h),-6.2%
same,inhibition at 10 µM,V2 (h),1.5%
same,inhibition at 10 µM,CB1 (h),-4.5%
same,MTD at 5 days,"[1]; CD1, mouse, in vivo, oral, male CD-1 mice, peroral once a day for 5 days",> 100 mg/kg
same,body weight versus control animals (Placebo group),"[1]; CD1 male mice, peroral, 100 mg/kg",no statistical significance was observed
same,mortality,"[1]; CD1 male mice, peroral, doses below 100 mg/kg (10 and 30 mg/kg)",did not lead to death
same,toxicity compared with the (Ia) antagonist,"[1]; male CD-1 mice, from MTD",more than three times less toxic
same,inhibition at 10 µM,β1 (h),1.8%
same,tumors regressed,"LnCAP-Z2 tumors; 20 mg/kg twice daily, oral gavage, 21 days",4 of 8
same,effect on individual tumors (in words),"LnCAP-Z2 tumors; analysis of individual tumors, 21 days oral",stimulate tumor regression
same,antitumor efficacy (in words),"LnCAP-Z2 tumors; once daily at 20 or 50 mg/kg, 21 days",comparable with Ia administered once daily at 10 mg/kg
same,antitumor efficacy (in words),"LnCAP-Z2 tumors; twice daily at 20 mg/kg, 21 days",highest antitumor efficacy
same,"Positive control, % (CYP 3A induction)",CYP 3A; Concentration 1 μM,0.0 ± 2.0%
same,"Positive control, % (CYP 3A induction)",CYP 3A; Concentration 10 μM,42.0 ± 6.1%
same,inhibition at 10 µM,D1 (h),-2.4%
same,inhibition at 10 µM,NK1 (h),14.7%
same,inhibition at 10 µM,5-HT transporter (h),43.5%
same,% Inhibition,"[2]; 10 μM, GABA (non-selective) (agonist radioligand)",7.1%
same,activity towards GABA (non-selective) receptors (in words),"[2]; Table 1, Target 24",practically inactive
same,inhibition at 10 µM,IP (PGI2) (h),-7.3%
same,inhibition at 10 µM,D3 (h),-4.8%
same,% Inhibition,AMPA,−23.0%
same,% Inhibition,[3],9.8%
same,inhibition at 10 µM,NK2 (h),-8.7%
same,inhibition at 10 µM,A2A (h),8.1%
same,% Inhibition,M (non0selective),−8.9%
same,% Inhibition,ER (non-selective) (h),−7.6%
same,inhibition at 10 µM,H1 (h),0.7%
same,inhibition at 10 µM,β2 (h),-8%
same,inhibition at 10 µM,GR (h),29.4%
same,% Inhibition,KV channel,−10.1%
same,% Inhibition,SKCa channel,−4.8%
same,% Inhibition,Y (non-selective),−16.4%
same,% Inhibition,Na+ channel (site 2),−11.6%
same,inhibition at 10 µM,MC4 (h),-3.1%
same,inhibition at 10 µM,CB2 (h),9.1%
same,inhibition at 10 µM,NOP (ORL1) (h),-1.7%
